The results in this text go back to ChEMBL document CHEMBL1909046, “DrugMatrix in vitro pharmacology data”.

For one assay, the target named is T1, Calcitonin receptor (Homo sapiens, UniProt P30988). Also: in other assays of this panel Not Active means under 50% inhibition at 10 µM.
T1 sequence (P30988 whole entry): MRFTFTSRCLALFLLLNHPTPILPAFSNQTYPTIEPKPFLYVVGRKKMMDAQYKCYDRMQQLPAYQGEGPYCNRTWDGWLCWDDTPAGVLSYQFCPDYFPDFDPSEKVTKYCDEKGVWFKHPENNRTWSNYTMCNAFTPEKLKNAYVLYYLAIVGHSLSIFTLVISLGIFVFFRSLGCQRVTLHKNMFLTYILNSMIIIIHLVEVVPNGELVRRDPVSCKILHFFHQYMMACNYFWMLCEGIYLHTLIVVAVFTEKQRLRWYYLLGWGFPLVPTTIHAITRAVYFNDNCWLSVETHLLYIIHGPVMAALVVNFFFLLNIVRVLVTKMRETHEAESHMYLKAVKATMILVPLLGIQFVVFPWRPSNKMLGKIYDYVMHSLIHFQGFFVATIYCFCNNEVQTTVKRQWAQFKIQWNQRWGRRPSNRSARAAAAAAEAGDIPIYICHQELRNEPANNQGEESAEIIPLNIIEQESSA
The class given is cell membranes, Membrane. The conditions noted are these: t47d.

For assay [1], the target named is Delta-type opioid receptor (Homo sapiens, UniProt P41143). The class given is cell membranes, HEK293, Membrane. The conditions noted are these: hek293. Also: in other assays of this panel Not Active means under 50% inhibition at 10 µM.
Delta-type opioid receptor, sequence (P41143 whole entry): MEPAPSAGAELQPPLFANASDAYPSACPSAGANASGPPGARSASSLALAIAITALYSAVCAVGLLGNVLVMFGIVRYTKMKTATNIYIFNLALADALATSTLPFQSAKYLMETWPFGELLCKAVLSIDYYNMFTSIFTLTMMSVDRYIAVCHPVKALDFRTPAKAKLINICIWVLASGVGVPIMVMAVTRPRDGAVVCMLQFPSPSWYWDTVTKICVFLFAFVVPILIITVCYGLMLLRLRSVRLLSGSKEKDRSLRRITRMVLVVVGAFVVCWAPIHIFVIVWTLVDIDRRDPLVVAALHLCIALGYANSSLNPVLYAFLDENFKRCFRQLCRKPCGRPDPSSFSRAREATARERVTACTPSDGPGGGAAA
Assay [2] has as its target C-C chemokine receptor type 2 (Homo sapiens, UniProt P41597). The class given is cell membranes, CHO-K1, Membrane. The conditions noted are these: cho-k1. Also: in other assays of this panel Not Active means under 50% inhibition at 10 µM.
For assay [3], the target named is T2, Amine oxidase [flavin-containing] A (Homo sapiens, UniProt P21397).
T2 sequence (P21397 whole entry): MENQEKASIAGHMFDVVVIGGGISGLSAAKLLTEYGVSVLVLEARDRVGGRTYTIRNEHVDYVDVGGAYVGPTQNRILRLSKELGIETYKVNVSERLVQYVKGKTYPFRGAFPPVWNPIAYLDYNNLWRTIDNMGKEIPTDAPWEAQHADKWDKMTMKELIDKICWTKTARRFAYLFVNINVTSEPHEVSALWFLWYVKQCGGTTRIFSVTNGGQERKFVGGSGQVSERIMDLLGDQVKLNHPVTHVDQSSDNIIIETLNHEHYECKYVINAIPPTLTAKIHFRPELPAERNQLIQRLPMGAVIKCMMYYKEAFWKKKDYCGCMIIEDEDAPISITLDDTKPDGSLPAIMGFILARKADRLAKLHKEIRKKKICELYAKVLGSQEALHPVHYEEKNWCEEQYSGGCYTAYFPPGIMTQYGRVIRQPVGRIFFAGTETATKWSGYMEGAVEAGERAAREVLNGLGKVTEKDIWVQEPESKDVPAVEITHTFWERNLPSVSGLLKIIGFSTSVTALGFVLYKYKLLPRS
In words: DRUGMATRIX: Monoamine Oxidase MAO-A enzyme inhibition (substrate: Kynuramine). The conditions noted are these: bti-tn-5b1-4; Not Active = under 50% inhibition at 10 µM. Also on record: species or system BTI-TN-5B1-4.

The next assay addresses Vasopressin V1a receptor (Homo sapiens, UniProt P37288). The assay is classed as cell membranes, Membrane. The note with it: hek293.
A short description of assay [4]: DRUGMATRIX: Tumor Necrosis Factor (TNF), Non-Selective radioligand binding (ligand: [125I] TNF-alpha). The class given is cell membranes, Membrane. The note with it: u-937; Not Active = under 50% inhibition at 10 µM.
The next assay concerns the target Substance-P receptor (Homo sapiens, UniProt P25103). The assay is classed as cell membranes, CHO, Membrane. The conditions noted are these: cho. Also: in other assays of this panel Not Active means under 50% inhibition at 10 µM.
Assay [5] is described as follows: DRUGMATRIX: Calcium Channel Type L, Dihydropyridine radioligand binding (ligand: [3H] Nitrendipine). The note with it: Not Active = under 50% inhibition at 10 µM. The class given is cell membranes, Rattus norvegicus, Wistar, Cerebral cortex, Membrane.
Assay [6] concerns the target T3, C-X-C chemokine receptor type 1 (Homo sapiens, UniProt P25024). Also: in other assays of this panel Not Active means under 50% inhibition at 10 µM.
T3 sequence (P25024 whole entry): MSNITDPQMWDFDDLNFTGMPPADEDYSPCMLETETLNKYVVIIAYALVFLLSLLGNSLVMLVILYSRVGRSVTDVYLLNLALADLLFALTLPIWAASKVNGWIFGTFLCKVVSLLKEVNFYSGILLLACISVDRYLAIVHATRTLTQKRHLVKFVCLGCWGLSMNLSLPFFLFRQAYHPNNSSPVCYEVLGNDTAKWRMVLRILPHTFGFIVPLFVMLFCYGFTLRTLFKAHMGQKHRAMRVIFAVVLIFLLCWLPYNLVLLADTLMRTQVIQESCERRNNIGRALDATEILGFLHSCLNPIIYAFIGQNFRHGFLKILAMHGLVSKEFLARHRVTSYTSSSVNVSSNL

C-C chemokine receptor type 2, sequence (P41597 whole entry): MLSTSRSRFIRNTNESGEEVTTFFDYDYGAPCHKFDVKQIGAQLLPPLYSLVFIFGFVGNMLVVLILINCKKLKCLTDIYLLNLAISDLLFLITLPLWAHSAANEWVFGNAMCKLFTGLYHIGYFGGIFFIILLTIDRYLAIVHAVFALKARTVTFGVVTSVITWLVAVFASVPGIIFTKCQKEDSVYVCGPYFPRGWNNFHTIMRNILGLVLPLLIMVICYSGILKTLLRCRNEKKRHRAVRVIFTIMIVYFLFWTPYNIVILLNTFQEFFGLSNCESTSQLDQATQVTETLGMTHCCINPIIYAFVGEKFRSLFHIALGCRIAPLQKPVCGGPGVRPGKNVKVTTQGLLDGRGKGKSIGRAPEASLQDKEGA
Vasopressin V1a receptor, sequence (P37288 whole entry): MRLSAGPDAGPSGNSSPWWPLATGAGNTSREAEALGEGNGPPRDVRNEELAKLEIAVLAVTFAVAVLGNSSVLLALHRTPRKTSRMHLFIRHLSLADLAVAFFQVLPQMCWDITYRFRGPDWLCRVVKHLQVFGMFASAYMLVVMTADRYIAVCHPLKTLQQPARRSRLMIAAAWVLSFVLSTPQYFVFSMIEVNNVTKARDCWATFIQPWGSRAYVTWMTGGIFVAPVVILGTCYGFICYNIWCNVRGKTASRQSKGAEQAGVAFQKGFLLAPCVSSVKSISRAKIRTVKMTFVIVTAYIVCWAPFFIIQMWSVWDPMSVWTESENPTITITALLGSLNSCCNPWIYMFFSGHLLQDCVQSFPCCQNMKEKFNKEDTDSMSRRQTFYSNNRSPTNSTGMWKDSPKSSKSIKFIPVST
Substance-P receptor, sequence (P25103 whole entry): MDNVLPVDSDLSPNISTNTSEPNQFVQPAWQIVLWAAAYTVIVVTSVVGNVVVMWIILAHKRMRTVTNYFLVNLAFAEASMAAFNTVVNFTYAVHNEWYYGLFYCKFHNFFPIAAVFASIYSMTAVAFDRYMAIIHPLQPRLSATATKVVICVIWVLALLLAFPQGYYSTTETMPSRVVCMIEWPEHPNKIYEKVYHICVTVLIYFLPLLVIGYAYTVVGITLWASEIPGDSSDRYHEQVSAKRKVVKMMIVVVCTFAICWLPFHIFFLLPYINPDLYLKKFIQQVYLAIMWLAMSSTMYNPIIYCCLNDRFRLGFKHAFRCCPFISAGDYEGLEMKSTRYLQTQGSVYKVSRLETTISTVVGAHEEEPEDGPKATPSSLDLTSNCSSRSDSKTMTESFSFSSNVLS

As a reminder, the IC50 is the concentration needed to halve the response being measured. As a reminder, the Ki is the dissociation constant of the complex between target and ligand, obtained from inhibition or displacement. Turning to `CCCCN1CCCC[C@H]1C(=O)Nc1c(C)cccc1C` [LEVOBUPIVACAINE], the IC50 result (at Calcitonin receptor; in assay [1]; in assay [2]; in assay [3]; at Vasopressin V1a receptor; in assay [4]) was “Not Active” in each case. Also, the 50% inhibitory concentration (IC50) entry (at Substance-P receptor; in [5]; in assay [6]) was “Not Active” each time. The Ki result in assay [4] and in assay [5] was “Not Active” each time.

With `Cc1onc(O)c1CC(N)C(=O)O` (racemic) [(R,S)-AMPA], the IC50 entry (at Calcitonin receptor; in assay [1]; in assay [2]; in assay [3]; on Vasopressin V1a receptor; in [4]) was “Not Active” each time. Further, the IC50 result (on Substance-P receptor; in assay [5]; in assay [6]) was “Not Active” each time. The inhibition constant (Ki) entry in assay [4] and in assay [5] was “Not Active” each time.

With `CC1CC(OC(=O)C(O)c2ccccc2)CC(C)(C)C1` (configuration not stated) [CYCLANDELATE], the IC50 result (on Calcitonin receptor; in assay [1]; in assay [2]; in [3]; on Vasopressin V1a receptor; in assay [4]) was “Not Active” in each case. Also, the IC50 result (at Substance-P receptor; in assay [5]; in assay [6]) was “Not Active” each time. For the same molecule, the Ki result in assay [4] and in [5] was “Not Active” in each case.

As to `COCCc1ccc(OCC(O)CNC(C)C)cc1` (configuration not stated) [METOPROLOL], the IC50 entry (at Calcitonin receptor; in assay [1]; in assay [2]; in assay [3]; on Vasopressin V1a receptor; in assay [4]) was “Not Active” each time. The IC50 entry (against Substance-P receptor; in assay [5]; in [6]) was “Not Active” throughout. Further, the inhibition constant Ki result in [4] and in assay [5] was “Not Active” each time.

As for `Cc1ccc(-c2cc(C(F)(F)F)nn2-c2ccc(S(N)(=O)=O)cc2)cc1` [CELECOXIB], the IC50 result (at Calcitonin receptor; in assay [1]; in assay [2]; in assay [3]; against Vasopressin V1a receptor; in assay [4]) was “Not Active” in each case. Also, the results for the IC50 entry (at Substance-P receptor; in assay [5] (read-out: IC50); in assay [6]) were “Not Active”, 24.6 µM and “Not Active”, respectively. Moreover, the values for the Ki entry in [4] and in [5] (read-out: Ki) were “Not Active” and 15.8 µM, respectively.

With `c1ccc(Nc2ccc(Nc3ccccc3)cc2)cc1`, the IC50 result (at Calcitonin receptor; in assay [1]; in assay [2]; in [3]; against Vasopressin V1a receptor; in assay [4]) was “Not Active” each time. Moreover, the IC50 entry (on Substance-P receptor; in [5]; in assay [6]) was “Not Active” each time. Further, the Ki entry in assay [4] and in assay [5] was “Not Active” throughout.

With `Cc1onc(-c2ccccc2Cl)c1C(=O)N[C@@H]1C(=O)N2[C@@H]1SC(C)(C)[C@@H]2C(=O)O` [CLOXACILLIN], the 50% inhibitory concentration (IC50) result (at Calcitonin receptor; in [1]; in [2]; in assay [3]; against Vasopressin V1a receptor; in assay [4]) was “Not Active” throughout. Also, the IC50 entry (against Substance-P receptor; in assay [5]; in assay [6]) was “Not Active” throughout. In addition, the Ki result in assay [4] and in assay [5] was “Not Active” in each case.

Take `CC1=C2C(=CO[C@H](C)[C@H]2C)C(O)=C(C(=O)O)C1=O` [CITRININ]: the IC50 result (at Calcitonin receptor; in assay [1]; in [2]; in [3]; on Vasopressin V1a receptor; in [4]) was “Not Active” in each case. Also, the IC50 entry (against Substance-P receptor; in [5]; in assay [6]) was “Not Active” throughout. Also, the inhibition constant (Ki) entry in assay [4] and in assay [5] was “Not Active” in each case.

For the molecule `CC(C)C(=O)Nc1ccc([N+](=O)[O-])c(C(F)(F)F)c1` [FLUTAMIDE], the IC50 entry (on Calcitonin receptor; in assay [1]; in [2]; in assay [3]; against Vasopressin V1a receptor; in assay [4]) was “Not Active” in each case. The IC50 result (at Substance-P receptor; in assay [5]; in [6]) was “Not Active” each time. Further, the Ki result in assay [4] and in assay [5] was “Not Active” each time.

Consider `CC[C@@]1(O)C[C@H](O[C@H]2C[C@H](N(C)C)[C@H](O[C@H]3C[C@H](O)[C@H](O[C@H]4CCC(=O)[C@H](C)O4)[C@H](C)O3)[C@H](C)O2)c2c(cc3c(c2O)C(=O)c2c(O)cccc2C3=O)[C@H]1C(=O)OC` [ACLARUBICIN], for which the IC50 result (on Calcitonin receptor; in assay [1]; in assay [2]; in [3]; against Vasopressin V1a receptor; in [4]) was “Not Active” in each case. Moreover, the IC50 entry (at Substance-P receptor; in assay [5]; in assay [6]) was “Not Active” throughout. For the same molecule, the Ki entry in assay [4] and in assay [5] was “Not Active” each time.

Turning to `Nc1nc2c(ncn2CCC(CO)CO)c(=O)[nH]1` [PENCICLOVIR], the IC50 entry (on Calcitonin receptor; in [1]; in assay [2]; in assay [3]; against Vasopressin V1a receptor; in assay [4]) was “Not Active” each time. For the same molecule, the IC50 result (at Substance-P receptor; in assay [5]; in assay [6]) was “Not Active” throughout. Moreover, the Ki result in [4] and in assay [5] was “Not Active” throughout.

`O=c1oc2ccccc2c(O)c1Cc1c(O)c2ccccc2oc1=O` [DICUMAROL]: the IC50 entry (on Calcitonin receptor; in assay [1]; in [2]; in [3]; against Vasopressin V1a receptor; in [4]) was “Not Active” each time. The IC50 entry (at Substance-P receptor; in assay [5]; in [6]) was “Not Active” in each case. The Ki entry in [4] and in [5] was “Not Active” throughout.
